Assay results published in patent US20130296426A1, “ANALGESIC” (NAGOYA INDUSTRIAL SCIENCE RESEARCH INSTITUTE, priority 2011, published 2013).

How the values were obtained:
Format in all cases: in vivo, rat
MIA-induced OA rats [1] = experiment: von Frey test, single administration to MIA-induced OA rats; conditions: for Recovery rate of 50% reaction threshold value (%): 1 hour after administration of test drug
Experimental: There were conducted the following experiments for testing the analgesic action of the analgesic of the present invention using the osteoarthritis (OA) rats induced by sodium monoiodoacetate (MIA) which were model animals for OA.
A 50% reaction threshold value to the mechanical stimulus of male Wistar rats of six weeks age was measured (the measuring method will be mentioned later) and a normal control group was selected. MIA prepared by saline was administered in a single dose of 0.3 mg/50 μL into right knee joint of the rats except the normal control group while 50 μL of saline was administered into left knee joint whereupon the MIA-induced OA rats were prepared. To the normal control group, 50 μL of saline was administered into the joints of both knees.
(§1) With regard to the male Wistar rats of six weeks age used as experimental animals except the normal control group, their 50% reaction threshold values to the mechanical stimulus (the measuring method will be mentioned later) and body weights were measured after 24 days from the administration of MIA mentioned in (1) and then 4 groups each comprising six rats [a normal control group, an onset control group, a test drug-administered group and a loxoprofen sodium hydrate (LOX)-administered group (a positive control)] were organized.
A test drug solution (0.1 mg/mL) using the compound 4 as a test drug and a LOX suspension (1 mg/mL) were prepared using a phosphate buffered saline (PBS) containing 0.1 vol % of dimethyl sulfoxide (DMSO) and a 0.5 w/v % aqueous solution of carboxymethyl cellulose, respectively.
(§2) Immediately after the grouping (after 24 days from the administration of MIA), a test drug solution was intraperitoneally administered in a single dose of 0.5 mg/kg to a test drug-administered group while, a LOX suspension was orally administered in a single dose of 5 mg/kg to a LOX-administered group. Meanwhile, to the normal control group and the onset control group, PBS containing 0.1 vol % of DMSO was intraperitoneally administered in a single dose.
The four groups of rats of the above (2) were placed in a transparent acrylic cage with a wire-meshed floor and habituated for about three minutes and the 50% reaction threshold values to the mechanical stimulus were measured after 1, 3, 5 and 24 hours from the administration of a test drug.
The measurement was conducted using von Frey filaments (manufactured by North Coast Medical Inc.) in accordance with the methods of Chaplan, et al. (Journal of Neuroscience Methods, vol. 53, no. 1, pages 55 to 63, 1994) and Dixon, et al. (Annual Review of Pharmacology and Toxicology; vol. 20, pages 441 to 462, 1980). […] The case where the rat escaped at the instance of removing the filament was also called positive. When the positive reaction was noted, stimulus was conducted similarly using a filament of one rank weaker while, when no reaction was noted, stimulus was conducted similarly using a filament of one rank stronger and the point when the reaction changed from negative to positive or from positive to negative was called the first two reactions. After that, stimulus was conducted for continuous four times by the same up-down method. A 50% reaction threshold value to the mechanical stimulus was measured using the reaction to the six stimuli in total and then (mean value)±(standard error) for each group was calculated. Incidentally, when stimulus reached by that of 15.0 g without positive reaction or, when positive reaction continued to 0.4 g, then 15.0 g or 0.25 g was adopted as each threshold value, respectively.
The test for significant difference was performed using the test in two groups (Student's t-test or Welch test) or Wilcoxon test between the normal control group and the onset control group, between the onset control group and the test drug-administered group, between the onset control group and the LOX-administered group and between the test drug-administered group and the LOX-administered group. […]

MIA-induced OA rats [2] = experiment: von Frey test, repeated administration to MIA-induced OA rats; conditions: for Recovery rate of 50% reaction threshold value (%): repeated administration, 1 hour after administration of test drug
Experimental: Selection of the normal control group and preparation of MIA-induced OA rats were conducted in the same manner as in the above 1.(1).
as §1, with “stimulus, weight bearing rate to a MIA-non-administered hind paw” for “stimulus”, “27” for “24”, “four” for “4”, “LOX-administered” for “loxoprofen sodium hydrate (LOX)-administered”
A test drug solution and an LOX suspension were prepared in the same manner as in the above 1.(2).
as §2, with “During eight days from immediately” for “Immediately”, “27 to 34” for “24”, “repeated” for “a single”, “repeatedly.” for “in a single dose.”
In the same manner as in the above 1.(4), the 50% reaction threshold values to the mechanical stimulus were measured after 1, 3, 5 and 24 hour(s) from the final administration of a test drug. Mean value±standard error for each group was calculated and the test for significant difference was done in the same manner as in the above 1.(4).
The analgesic of the present invention was repeatedly administered to the MIA-induced OA rat and a von Frey test was conducted in the same manner as in the above test 1.(4) whereupon each 50% reaction threshold value was measured. With regard to the 50% reaction threshold value after 1 hour from the administration of a test drug, a recovery rate (%) of the 50% reaction threshold value was calculated in the same manner as in the above test 1.(4).

MIA-induced OA rats [3] = experiment: Weight bearing rate to MIA-non-administered hind paw (dual channel weight averager), repeated administration
Experimental: as §2, with “During eight days from immediately” for “Immediately”, “27 to 34” for “24”, “repeated” for “a single”, “repeatedly.” for “in a single dose.”
One hind paw of a rat where OA was induced by administration of MIA develops a pain symptom. Therefore, a body weight bearing to a painless hind paw to which no MIA was administered increases in a rat for avoiding the application of body weight to the hind paw after administration of MIA. […] Using this weight bearing rate to the MIA-non-administered hind paw as an index, the analgesic action of the analgesic of the present invention was measured.
The weight bearing rate to the MIA-non-administered hind paw was determined by the following formula after measuring the weight distribution to right and left hind paws of a rat using a device for evaluating the analgesic effect for small animals (Incapacitance Tester manufactured by Linton Instrumentation). Mean value±standard error for each group was also calculated and the test for significant difference was carried out in the same manner as in the above 1.(4). […]

[4] = test system: experimental autoimmune neuritis (EAN) rats; experiment: von Frey test in Guillain-Bareé syndrome model (EAN) rats
Experimental: The following experiment for checking the analgesic action of the analgesic of the present invention was conducted using the experimental autoimmune neuritis (EAN) rats which were the model animals for Guillain-Bareé syndrome having an on set of chronic pain.
The 50% reaction threshold value to mechanical stimulus of female Lewis rats of seven weeks age were measured to select a normal control group. Left hind paw of each of the anesthetized rats except the normal control group was immunized by subcutaneous administration of 0.1 mL of an emulsion prepared by equivalent mixing of a 2 mg/mL solution of a peptide derived from bovine P2 protein (SP-26) with an adjuvant complete Freund H37Ra whereupon EAN rats were prepared.
The grouping was conducted and a test drug was administered in the same manner as in (2) and (3) of the Pharmacological Test II.
A von Frey test was carried out in the same manner as in 1.(4) of the above Pharmacological Test I to measure the 50% reaction threshold value to the mechanical stimulus to each group over time. The test for significant difference was conducted and recovery rate (%) of the 50% reaction threshold value was calculated in the same manner as in (4) of the above Pharmacological Test II.

## CCCCCCC/C=C/C(=O)OC [Compound 3, Trans-2-decenoic acid methyl ester]
MIA-induced OA rats [1]; single dose
  Recovery rate of 50% reaction threshold value (%): 32.4%
MIA-induced OA rats [2]
  Recovery rate of 50% reaction threshold value (%): 23.3%

## CCCCCCC/C=C/C(=O)OCC [Compound 4, Trans-2-decenoic acid ethyl ester]
MIA-induced OA rats [3]; repeated intraperitoneal 0.5 mg/kg for eight days, vs onset control group, FIG. 3
  weight bearing rate to the MIA-non-administered hind paw: significantly decreased
MIA-induced OA rats [1]; single dose
  Recovery rate of 50% reaction threshold value (%): 61.6%
MIA-induced OA rats [1]; single intraperitoneal dose 0.5 mg/kg, 24 days after MIA, vs onset control group, FIG. 1
  50% reaction threshold value to the mechanical stimulus: significantly high
MIA-induced OA rats [2]; repeated intraperitoneal 0.5 mg/kg for eight days, after 1 and 3 hour(s) from the final administration, vs onset control group, FIG. 2
  50% reaction threshold value to the mechanical stimulus: significantly high
[4]; 0.25 mg/kg/day intraperitoneal once daily, After 8 days
  Recovery rate of 50% reaction threshold value (%): 100.0^[…] %
[4]; 0.25 mg/kg/day intraperitoneal once daily, After 11 days
  Recovery rate of 50% reaction threshold value (%): 40.1^[…] %
[4]; 0.25 mg/kg/day intraperitoneal once daily, After 25 days
  Recovery rate of 50% reaction threshold value (%): 21.7^[…] %
[4]; 0.25 mg/kg/day intraperitoneal once daily, After 28 days
  Recovery rate of 50% reaction threshold value (%): 24.2^[…] %
[4]; 0.50 mg/kg/day intraperitoneal once daily, After 8 days
  Recovery rate of 50% reaction threshold value (%): 98.5^[…] %
[4]; 0.50 mg/kg/day intraperitoneal once daily, After 11 days
  Recovery rate of 50% reaction threshold value (%): 35.5%
[4]; 0.50 mg/kg/day intraperitoneal once daily, After 25 days
  Recovery rate of 50% reaction threshold value (%): 38.3^[…] %
[4]; 0.50 mg/kg/day intraperitoneal once daily, After 28 days
  Recovery rate of 50% reaction threshold value (%): 38.3^[…] %

## CCCCCCC/C=C/C(=O)OCCC [Compound 5, Trans-2-decenoic acid propyl ester]
MIA-induced OA rats [1]; single dose
  Recovery rate of 50% reaction threshold value (%): 8.1%

## CCCCCCC/C=C/COC(=O)/C=C/CCCCCCC [Compound 16, Trans-2-decenoic acid trans-2-decenyl ester]
MIA-induced OA rats [3]; repeated intraperitoneal 0.5 mg/kg/day, FIG. 4
  weight bearing rate to the MIA-non-administered hind paw: significantly lowered
MIA-induced OA rats [1]; single dose
  Recovery rate of 50% reaction threshold value (%): 39.6%
MIA-induced OA rats [2]
  Recovery rate of 50% reaction threshold value (%): 61.4%

## C=CCCCCCCCCOC(=O)/C=C/CCCCCCC [Compound 17, Trans-2-decenoic acid trans-9-decenyl ester]
MIA-induced OA rats [1]; single dose
  Recovery rate of 50% reaction threshold value (%): 19.5%

## CCCCCCC/C=C/C(=O)OC1CCCCC1 [Compound 18, Trans-2-decenoic acid cyclohexyl ester]
MIA-induced OA rats [1]; single dose
  Recovery rate of 50% reaction threshold value (%): 20.8%
MIA-induced OA rats [2]
  Recovery rate of 50% reaction threshold value (%): 32.6%

## CCCCCC/C=C/CC(=O)OCC [Compound 20, Trans-3-decenoic acid ethyl ester]
MIA-induced OA rats [1]; single dose
  Recovery rate of 50% reaction threshold value (%): 17.7%
MIA-induced OA rats [2]
  Recovery rate of 50% reaction threshold value (%): 66.3%

## CC(C(=O)O)c1ccc(CC2CCCC2=O)cc1 (stereo not shown) [LOX, loxoprofen sodium hydrate, reference compound]
MIA-induced OA rats [1]; single oral dose 5 mg/kg, 24 days after MIA, vs onset control group, FIG. 1
  suppressive action to hyperalgesia (50% reaction threshold value): no significant suppressive action to hyperalgesia

## CCCCCCC/C=C/C(=O)O [trans-2-decenoic acid, reference compound]
MIA-induced OA rats [1]; single dose, 1 hour after administration
  suppressive effect for hyperalgesia (50% reaction threshold value before vs after 1 hour from administration): no suppressive effect for hyperalgesia
